IC50 and Ratio IC50 data for four molecules are collected here from ChEMBL document CHEMBL4043218, “Analysis of the binding sites of vitamin D 1α-hydroxylase (CYP27B1) and vitamin D 24-hydroxylase (CYP24A1) for the design of selective CYP24A1 inhibitors: Homology modelling, molecular dynamics simulations and identification of key binding requirements” (Bioorg Med Chem, 2017).

In experiment [1] the target is T1, 1,25-dihydroxyvitamin D(3) 24-hydroxylase, mitochondrial (Homo sapiens, UniProt Q07973).
T1 sequence (Q07973 whole entry): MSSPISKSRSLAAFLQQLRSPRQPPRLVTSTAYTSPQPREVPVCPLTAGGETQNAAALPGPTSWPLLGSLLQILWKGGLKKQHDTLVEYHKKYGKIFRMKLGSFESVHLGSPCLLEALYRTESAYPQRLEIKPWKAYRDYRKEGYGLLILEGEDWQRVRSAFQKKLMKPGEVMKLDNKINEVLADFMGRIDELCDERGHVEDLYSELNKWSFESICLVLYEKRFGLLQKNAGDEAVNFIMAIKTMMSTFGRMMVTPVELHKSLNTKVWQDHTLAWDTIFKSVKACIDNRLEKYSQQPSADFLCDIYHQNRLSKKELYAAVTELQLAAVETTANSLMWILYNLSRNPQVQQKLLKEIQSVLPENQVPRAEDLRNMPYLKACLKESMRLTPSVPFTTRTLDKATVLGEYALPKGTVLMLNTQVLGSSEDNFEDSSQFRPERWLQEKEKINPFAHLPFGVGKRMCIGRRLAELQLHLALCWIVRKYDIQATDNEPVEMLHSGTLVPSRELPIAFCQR
As to the kind of experiment: Inhibition of human CYP24A1.

The next experiment is filed under the species Homo sapiens. In words: Selectivity index, ratio of IC50 for human CYP24A1 to IC50 for human CYP27B1.
The target in experiment [2] is T2, 25-hydroxyvitamin D-1 alpha hydroxylase, mitochondrial (Homo sapiens, UniProt O15528).
T2 sequence (O15528 whole entry): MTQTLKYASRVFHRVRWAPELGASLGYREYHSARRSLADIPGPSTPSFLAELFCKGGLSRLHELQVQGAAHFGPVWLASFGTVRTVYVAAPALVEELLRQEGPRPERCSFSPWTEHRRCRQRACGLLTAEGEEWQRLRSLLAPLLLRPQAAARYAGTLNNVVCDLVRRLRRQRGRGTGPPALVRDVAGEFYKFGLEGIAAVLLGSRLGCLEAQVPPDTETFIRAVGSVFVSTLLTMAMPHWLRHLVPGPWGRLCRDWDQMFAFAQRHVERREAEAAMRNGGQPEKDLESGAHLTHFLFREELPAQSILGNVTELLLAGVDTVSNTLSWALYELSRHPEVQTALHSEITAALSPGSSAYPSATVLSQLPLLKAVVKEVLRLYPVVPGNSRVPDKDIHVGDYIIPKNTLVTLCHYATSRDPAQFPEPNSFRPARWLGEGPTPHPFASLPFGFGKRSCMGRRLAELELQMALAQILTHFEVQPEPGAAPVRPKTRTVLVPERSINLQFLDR
In words: Inhibition of human CYP27B1.

The target in experiment [3] is T2, 25-hydroxyvitamin D-1 alpha hydroxylase, mitochondrial. As to the kind of experiment: Inhibition of human CYP27B1 expressed in Escherichia coli assessed as reduction in […] activity incubated for 25 mins using Adx, AdR and […].
In experiment [4] the target is T1, 1,25-dihydroxyvitamin D(3) 24-hydroxylase, mitochondrial. As to the kind of experiment: Inhibition of N-terminal MBP-tagged human CYP24A1 expressed in Escherichia coli assessed as reduction in […] activity incubated for 25 mins using Adx, AdR and 1,25(OH)2D3.

The structures appear in SMILES notation. Where only a bound is given, the exact number is not on record here.

In general, IC50 refers to the concentration that gives 50% inhibition. Take `CN(C)c1cccc2c(S(=O)(=O)NC(Cn3ccnc3)c3ccc(Cl)cc3Cl)cccc12` (configuration not stated): the concentration for half-maximal inhibition (IC50) was 4480 nM in experiment [1] and 95.2 nM in experiment [2]. Besides, the Ratio IC50 in the experiment filed under Homo sapiens is 47.
In the case of `Cc1[nH]nc(O)c1C(c1ccc(OCc2ccncc2)cc1)c1c(O)n[nH]c1C`, the Ratio IC50 in the experiment listed under Homo sapiens stood at 5. The results for the 50% inhibitory concentration (IC50) in experiment [3] and in experiment [4] were 570 nM and 2500 nM, respectively.
Regarding `Cc1[nH]nc(O)c1C(c1cccc(OCc2ccncc2)c1)c1c(O)n[nH]c1C`, the Ratio IC50 in the experiment listed under Homo sapiens was found to be 5. For the same molecule, the half-maximal inhibitory concentration (IC50) in experiment [3] was found to be 410 nM; in experiment [4] it was 2600 nM.
In the case of `CN(C)CCn1nnnc1SCC(O)(Cn1ccnc1)c1ccc(Cl)cc1Cl` (configuration not stated), the half-inhibitory concentration (IC50) in experiment [1] was > 10000 nM; in experiment [2] it was 60.2 nM. Besides, the Ratio IC50 in the experiment listed under Homo sapiens is 66.
